Where two headings read alike, the source gives them in different places.
Columns and labels:
HEK-293 cells = format: cell-based, Human; settings: for toxicity enhanced: co-treatment with UV 365 nm and 40 °C; for more cell death after exposing herbicide to 40 °C for 2 h: herbicide at LD50, no UV, compared with 4 °C and RT groups, 24-h cell exposure; for change in cell viability: 2 h of 40 °C/UV 254 nm; for increased toxicity: vs no UV
[1] = format: cell-based, Human; settings: human, HEK-293 cells, relative cell viability, 4 °C/No UV = 100 %
[2] = outdoor aquatic mesocosms, at 25 ng mL^−1; cited from earlier work
[3] = cited from earlier work
isolated rat hepatocytes = settings: rats and dogs, 100–200 μmole L-1 for 2–4 h; cited from earlier work
[4] = in vivo studies; cited from earlier work

| SMILES | toxicity enhanced (HEK-293 cells) [%] | more cell death after exposing herbicide to 40 °C for 2 h (HEK-293 cells) | viability at 24 h ([1]; 40 °C/No UV 2 h) [%] | viability at 24 h ([1]; 40 °C/UV 254 nm 2 h) [%] | viability at 24 h ([1]; 40 °C/UV 365 nm 2 h) [%] | change in cell viability (HEK-293 cells) | half-life [2] [days] | LD50 (NIH TOXNET) [4] [mg/kg] | also measured |
| --- | --- | --- | --- | --- | --- | --- | --- | --- | --- |
| CCOCN(C(=O)CCl)c1c(C)cccc1CC [Acetochlor, acetochlor] | 55 | about 45% | 56.6 | 163 | 45.1 |  |  |  |  |
| CCc1cccc(CC)c1N(COC)C(=O)CCl [Alachlor, alachlor] | 80 | about 45% | 54.1 | 87.9 | 19.2 | no further changes | 19.8 |  | increased toxicity (HEK-293 cells; herbicide exposed to UV 254 nm 2 h at 4 °C): 40%; increased toxicity (HEK-293 cells; herbicide exposed to UV 365 nm 2 h at 4 °C): 24% |
| CCNc1nc(Cl)nc(NC(C)C)n1 [Atrazine, atrazine] |  |  |  |  |  |  |  |  | half-life ([3]; aerobic condition): about 150 days; half-life ([3]; anaerobic condition): more than 2 years; half-life ([3]; in soil): up to 6 months |
| CCc1cccc(C)c1N(C(=O)CCl)C(C)COC (stereo not shown) [Metolachlor, metolachlor] |  |  |  |  |  | no further changes | 33.8 |  | differences in cell viability responses between 4 °C, 23 °C and 40 °C groups (HEK-293 cells; UV 254 nm and UV 365 nm for 2 h): no differences; temperature effect on herbicide-triggered cytotoxicity (HEK-293 cells; herbicide at LD50 kept 2 h at 4, 23 or 40 °C, no UV, 4 °C group as control): no further effect; UV effect on cytotoxicity (HEK-293 cells; no UV, UV 254 nm and UV 365 nm groups, 2 h at 4 °C): no further change; hepatotoxicity (isolated rat hepatocytes): not |
| CC(C)Nc1nc(Cl)nc(NC(C)C)n1 [Propazine, propazine] |  |  |  |  |  |  |  | > 5000 |  |
| CCNc1nc(Cl)nc(NCC)n1 [Simazine, simazine] |  |  |  |  |  |  |  | > 5000 |  |
